The values below come from publication PMC8341399, “A STING-based fluorescent polarization assay for monitoring activities of cyclic dinucleotide metabolizing enzymes” (RSC Chemical Biology, 2020).

Assay [1] deals with T1, hSTING (Homo sapiens, UniProt Q86WV6).
T1 construct: SUMO; His; made in house; host or cells: E. coli Rosetta 2(pLysS)
Put plainly: hSTING titration of fluorescein-labeled cyclic dinucleotide probes by fluorescence polarization. Format: binding. The conditions noted are these: 50 nM probe, 1× PBS, 5 min room temperature, n = 3; read-out: Kd (dissociation constant, probe-hSTING).

In assay [2] the target is T1, hSTING. The conditions noted are these: cited from earlier work; for Kd: natural cyclic dinucleotides, read-out: Kd (binding constant for hSTING).
For assay [3], the target named is T1, hSTING. Description: Probe displacement assay: F-c-di-GMP displaced from hSTING by unlabeled cyclic dinucleotides (FP). The note with it: 50 nM F-c-di-GMP, 10 μM hSTING; read-out: apparent half maximal inhibitory concentration (displacement of F-c-di-GMP). The format is binding.
Assay [4] concerns T2, hENPP1.
T2 construct: purchased R&D Systems
Put plainly: ENPP1 cGAMP hydrolysis tracking, HPLC analysis. Format: biochemical, human. The note with it: ENPP1 9.16 nM, 50 μM cGAMP.

Assay [5] concerns T2, hENPP1. Put plainly: ENPP1 cGAMP hydrolysis tracking, FP assay detection. Format: biochemical, human. The conditions noted are these: ENPP1 9.16 nM, 50 μM cGAMP.
Where [6] appears, read: ENPP1 hydrolysis products of cGAMP, stated without reference.

Where two headings read alike, the source gives them in different places.

T1 sequence (Q86WV6 155-341 limits assumed): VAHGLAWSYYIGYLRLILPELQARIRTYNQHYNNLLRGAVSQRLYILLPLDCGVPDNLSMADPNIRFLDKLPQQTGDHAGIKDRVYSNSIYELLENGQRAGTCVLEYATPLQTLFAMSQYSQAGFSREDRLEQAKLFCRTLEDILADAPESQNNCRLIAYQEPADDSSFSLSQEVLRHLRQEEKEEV

As to “2′-O-(6-[fluoresceinyl]aminohexylcarbamoyl)-cyclic diadenosine monophosphate [F-c-di-AMP]”, the Kd at hSTING [1] is 29.8 ± 6.3 µM.

As for “2′-O-(6-[fluoresceinyl]aminohexylcarbamoyl)-cyclic diguanosine monophosphate [F-c-di-GMP]”, the Kd at hSTING [1] is 3.45 ± 0.48 µM.

Turning to `Nc1ncnc2c1ncn2[C@@H]1O[C@H](COP(=O)(O)O)[C@@H](O)[C@H]1O` [AMP], the hSTING binding entry on hSTING [2] (setting [6]) is “do not bind”.

Take `Nc1nc2c(ncn2[C@@H]2O[C@H](COP(=O)(O)O)[C@@H](O)[C@H]2O)c(=O)[nH]1` [GMP]: at hSTING [2] (setting [6]), the hSTING binding result is listed as “do not bind”.

Take `Nc1nc2c(ncn2[C@@H]2O[C@H](CO)[C@@H](O)[C@H]2OP(=O)(O)OC[C@H]2O[C@@H](n3cnc4c(N)ncnc43)[C@H](O)[C@@H]2OP(=O)(O)O)c(=O)[nH]1` [Gp[2′–5′]Ap[3′]]: the hSTING binding entry at hSTING [2] (poxin product of cGAMP) is recorded as “does not bind”.

`Nc1ncnc2c1ncn2[C@@H]1O[C@@H]2COP(=O)(O)O[C@H]3[C@@H](O)[C@H](n4cnc5c(N)ncnc54)O[C@@H]3COP(=O)(O)O[C@H]2[C@H]1O` [c-di-AMP]: at hSTING [2], the dissociation constant (Kd) is 1.38 µM. Besides, the IC50 on hSTING [3] stood at 7.35 ± 0.86 µM.

For the compound `Nc1nc2c(ncn2[C@@H]2O[C@@H]3COP(=O)(O)O[C@H]4[C@@H](O)[C@H](n5cnc6c(=O)[nH]c(N)nc65)O[C@@H]4COP(=O)(O)O[C@H]3[C@H]2O)c(=O)[nH]1` [c-di-GMP], on hSTING [2], the dissociation constant (Kd) is 1.21 µM. Further, on hSTING [3], the IC50 worked out at 7.41 ± 0.49 µM.

On to `Nc1nc2c(ncn2[C@@H]2O[C@@H]3COP(=O)(O)O[C@H]4[C@@H](O)[C@H](n5cnc6c(N)ncnc65)O[C@@H]4COP(=O)(O)O[C@@H]2[C@@H]3O)c(=O)[nH]1` [cGAMP, 2′3-cGAMP], for which the “cGAMP percent cleavage HPLC” value is reported as 0% in the assay with hENPP1 [4] (0 min); 44% in the assay with hENPP1 [4] (10 min); 56% in the assay on hENPP1 [4] (20 min); 76% with hENPP1 [4] (40 min); 85% in the assay with hENPP1 [4] (50 min). Besides, the “cGAMP percent cleavage FP Assay” value is given as 0% with hENPP1 [5] (0 min); 49% in the assay on hENPP1 [5] (10 min); 77% in the assay on hENPP1 [5] (20 min); 98% with hENPP1 [5] (30 min); 95% in the assay with hENPP1 [5] (40 min); 100% in the assay with hENPP1 [5] (50 min (assumed 100% cleavage)).
